Results reported in PMC4961418, “A Selective Irreversible Inhibitor of Furin Does Not Prevent Pseudomonas Aeruginosa Exotoxin A-Induced Airway Epithelial Cytotoxicity” (PLoS ONE, 2016).
Side chains are listed from the residue outwards. Peptide text beside a SMILES is read from it. * marks the point of attachment. Biotin = O=C1N[C@H]2[C@H](CS[C@H]2CCCCC(=O)*)N1; X1 = N=C(N)NCCCC(N*)P(=O)(Oc1ccccc1)Oc1ccccc1; Palmitoyl = CCCCCCCCCCCCCCCC(=O)*; Ahx = NCCCCCC(=O)O

How the values were obtained:
[1] = system: cell surface furin-like activity (CuFi-1 epithelial cells); assay: Epithelial cell surface furin-like activity assay; type: cell-based, human; conditions: 10 μM inhibitor, pERTKR substrate 50 μM applied to cell cultures
Protocol: The CuFi-1 cell line was derived from human airway epithelium of a CF patient (F508del/F508del) transformed with a reverse transcriptase component of telomerase, hTERT and human papillomavirus type 16 E6 and E7 genes. Cells were grown as submerged cultures using bronchial epithelial growth medium (BEBM including a supplement pack) containing: epidermal growth factor, hydrocortisone, bovine pituitary extract, transferrin, bovine insulin, triiodothyronine, epinephrine, retinoic acid, penicillin-streptomycin (0.025 μg/ml), gentamycin ([…]) and amphotericin (25 μg/ml).
Cell culture media was removed from CuFi-1 epithelial cells grown in 96 well microtitre plates (Thermo Scientific Sterilin; clear bottom, black walled) and replaced with PBS /+ inhibitor compounds (furin I or QUB-F1). The furin fluorogenic substrate (pERTKR -NH2Mec) was then applied directly to the cell cultures to give a final concentration of 50 μM. Cell surface proteolytic activity was measured by monitoring the formation of–NH2Mec at λex 360 nm and λem 480 nm using a 5 mm orbital scan every 60 s over a 1 h period (FLUOstar Optima microplate reader; BMG Labtech).
Fig 4 Effect of furin inhibitors on PEA-induced epithelial cell toxicity. (A) Cell toxicity (%) induced by 2 μg/ml PEA (24 h) was measured in the presence or absence of furin I or QUB-F1. Data represent mean ± s.e.m. *P<0.05. […]

[2] = target: T1, proteinase 3 (Homo sapiens, UniProt P24158); assay: Fluorogenic protease activity assay, proteinase 3; type: biochemical; conditions: 10 μM inhibitor, MeO-Suc-Ala-Ala-Pro-Val-NH2Mec 50 μM, N = 3
T1 construct: purchased Elastin Products, Missouri
T1 sequence (P24158 28-256): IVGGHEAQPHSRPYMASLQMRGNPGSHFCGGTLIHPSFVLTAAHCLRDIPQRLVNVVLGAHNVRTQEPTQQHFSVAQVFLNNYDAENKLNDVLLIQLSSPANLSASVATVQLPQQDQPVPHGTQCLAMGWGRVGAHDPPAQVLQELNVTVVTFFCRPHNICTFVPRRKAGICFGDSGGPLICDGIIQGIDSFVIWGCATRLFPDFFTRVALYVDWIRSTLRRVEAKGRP
Source text: (§1) Recombinant human enzymes were sourced as follows: furin and matriptase (R&D Systems); prostasin (Sino Biological); trypsin and chymotrypsin (Sigma-Aldrich); factor Xa and neutrophil elastase (Merck Millipore) and proteinase-3 and cathepsin G (Elastin Products, Missouri). Fluorogenic substrates were sourced as follows: p-Glu-Arg-Thr-Lys-Arg-NH2Mec and Boc-Gln-Ala-Arg-NH2Mec (R&D Systems); Boc-Ile-Glu-Gly-Arg-NH2Mec (Bachem); Z-Gly-Gly-Arg-NH2Mec, MeOSuc-Ala-Ala-Pro-Val-NH2Mec and Suc-Ala-Ala-Pro-Phe-NH2Mec (Sigma-Aldrich). All chemicals and reagents for the synthesis of QUB-F1 were supplied by Sigma-Aldrich unless otherwise indicated. Fmoc-Lys(Boc)-SASRIN resin was sourced from Bachem. Fmoc-protected amino acids and HCTU were supplied by Merck Millipore.
(§2) Recombinant protease activities were assessed using the cognate fluorogenic substrates (final concentration 50 μM) as follows: trypsin (Z-Gly-Gly-Arg-NH2Mec), prostasin and matriptase (Boc-Gln-Ala-Arg-NH2Mec), factor Xa (Boc-Ile-Glu-Gly-Arg-NH2Mec), neutrophil elastase and proteinase 3 (MeO-Suc-Ala-Ala-Pro-Val-NH2Mec), chymotrypsin and cathepsin G (Suc-Ala-Ala-Pro-Phe-NH2Mec). The rate of substrate hydrolysis in the presence or absence of furin inhibitors was assessed by continuous recording at λex 360 nm, λem 480 nm, over a period of 60 minutes using a FLUOstar Optima microplate reader (BMG Labtech). […]

[3] = system: chymotrypsin; assay: Fluorogenic protease activity assay, chymotrypsin; type: biochemical, human; conditions: 10 μM inhibitor, Suc-Ala-Ala-Pro-Phe-NH2Mec 50 μM, N = 3
Source text: as §1, §2

[4] = target: cathepsin B (Homo sapiens, UniProt P07858); assay: Cathepsin B activity assay; type: biochemical; conditions: up to and including a concentration of 10 μM, N = 3
Protocol: Fig 3 Comparison of QUB-F1 and furin I versus cathepsin B. Cathepsin B activity was assessed in the presence or absence of various concentrations of QUB-F1 or furin I (N = 3). Data represent mean ± s.e.m.

[5] = target: T2, neutrophil elastase (Homo sapiens, UniProt P08246); assay: Fluorogenic protease activity assay, neutrophil elastase; type: biochemical; conditions: 10 μM inhibitor, MeO-Suc-Ala-Ala-Pro-Val-NH2Mec 50 μM, N = 3
T2 construct: purchased Merck Millipore
T2 sequence (P08246 30-267): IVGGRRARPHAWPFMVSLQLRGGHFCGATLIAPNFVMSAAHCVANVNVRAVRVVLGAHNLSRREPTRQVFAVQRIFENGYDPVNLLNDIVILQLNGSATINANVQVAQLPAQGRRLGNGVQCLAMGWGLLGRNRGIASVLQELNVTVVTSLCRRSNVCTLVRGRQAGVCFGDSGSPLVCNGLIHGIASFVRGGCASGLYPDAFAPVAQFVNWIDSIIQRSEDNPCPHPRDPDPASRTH
Source text: as §1, §2

[6] = system: trypsin; assay: Fluorogenic protease activity assay, trypsin; type: biochemical, human; conditions: 10 μM inhibitor, Z-Gly-Gly-Arg-NH2Mec 50 μM, N = 3
Source text: as §1, §2

CCCCCCCCCCCCCCCC(=O)N[C@@H](CCCCNC(=O)CCCCCNC(=O)CCCC[C@@H]1SC[C@@H]2NC(=O)N[C@@H]21)C(=O)N[C@@H](CCCNC(=N)N)C(=O)N[C@H](C(=O)N[C@@H](CCCCN)C(=O)NC(CCCNC(=N)N)P(=O)(Oc1ccccc1)Oc1ccccc1)C(C)C (stereo partly drawn) [QUB-F1, N^α-Pal-N^ω-(Biotinyl-Ahx)-Lys-RVKR^P(OPh)2] (Palmitoyl-K([Ahx-Biotin])RVK-X1)
inhibition of cell surface furin-like activity [1]: inhibited cell surface furin-like activity to the same extent as furin I | inhibition of proteinase 3 [2]: Neither compound was found to inhibit | inhibition of chymotrypsin [3]: Neither compound was found to inhibit | inhibitory action on cathepsin B [4]: no inhibitory action | inhibition of neutrophil elastase [5]: Neither compound was found to inhibit | inhibition of trypsin [6]: did not
